Read-outs that look alike come from different tables or passages of the source. Marks after values point to notes of the source that are not given here.
How the values were obtained:
[1] = Solubility of the CypH dyes (Table 1); type: physicochemical
Method: (§1) Characterization: All new CypH dyes were characterized by proton NMR and mass spectrometry to confirm identity. NMR data was consistent with the structure and mass spectrometry results gave the expected mass of the dye±0.5 amu. An HPLC method was developed (see below) and used to assess dye purity. […] Retention times on the column generally correlated with lipophilicity of the dyes with water soluble dyes containing sulfate groups eluting out earlier (@10.6 min for CypH-3, 6, 9) than CypH-1 (@11.9 min) and the more lipophilic dyes later. Optical properties of the dyes, acid dissociation constants and solubilities were also determined. Synthetic intermediates were also characterized by proton NMR.

[2] = Fluorescence properties of the CypH dyes at pH 5.0 and pH 7.5 (Table 2); type: physicochemical; settings: for Ratio Intensity pH 5.0/7.5: fluorescence intensity pH 5.0 over pH 7.5
Description: The excitation and emission maxima of CypH-1 are 760 and 777 nm, respectively. The signal intensity ratio of pH 5 over pH 7.5 was about 10. The meso-bridge ring size, lipophilicity and electro-density of CypH-1 was modified to provide better optical property. […] The best compound from this group was CypH-5 whose fluorescence ratio of pH 5.0/pH 7.5 was increased to 22. Based on this initial structure and property relationship, the second round of 10 new analogs were designed using CypH-5 as the core, focusing on modifying the electron density on the aniline ring and the indolinium ring. Various alkyl groups, such as methyl, ethyl, propyl, isopropyl and their combinations, were applied to these two positions.
The CypH analogs with other longer alkyl chains had much lower background fluorescence. […] Among them, CypH-11, which has a methyl isopropyl aniline and an isopropyl group on the indolinium ring, gave a 112-fold enhancement in fluorescence signal. CypH-11 has absorbance and emission maxima at 766 nm and 785 nm, respectively (FIG. 4) and was selected as the lead compound (vide infra).

[3] = Optical properties of the CypH dyes: absorbance maximum and extinction coefficient in EtOH (Table 1); type: physicochemical; settings: for Ex Coeff (M^−1cm^−1) @ Abs Max: at absorbance maximum
Method: as §1

[4] = in water; cited from earlier work
[5] = organic solvent or mixture, in EtOH, read-out: Solubility

Row | SMILES | Solubility [1, 5] | Ratio Intensity pH 5.0/7.5 [2] | FL Intensity pH 5.0 [2] | FL Max (nm) pH 5.0 [2] | FL Intensity pH 7.5 [2] | FL Max (nm) pH 7.5 [2] | Ex Coeff (M^−1cm^−1) @ Abs Max [3] | Abs. Max (nm) in EtOH [3] | Solubility ([1]; in EtOH) | Ratio Intensity pH 5.0/7.5 ([2]; listed as 5) | Solubility ([1]; in H2O) | quantum yield (Φ) of standard compound [4]
1 | CCN1/C(=C/C=C2\CCCC(/C=C/C3=[N+](CC)c4ccccc4C3(C)C)=C2Oc2ccc(N(C)C(C)C)cc2)C(C)(C)c2ccccc21 [CypH-10] | > 1000 µM | 13.0 | 5380 | 788 nm | 414 | 781 nm | 175,400 M^−1cm^−1 | 765 nm | – | – | – | –
2 | CC1(C)C(/C=C/C=C/C=C/C=C2\N(CCCCS(=O)(=O)O)c3ccc4ccccc4c3C2(C)C)=[N+](CCCCS(=O)(=O)[O-])c2ccc3ccccc3c21 [indocyanine green] | – | – | – | – | – | – | – | – | – | – | – | 1.2%
3 | CCN(C)c1ccc(OC2=C(/C=C/C3=[N+](CC)c4ccccc4C3(C)C)CCC/C2=C\C=C2\N(CC)c3ccccc3C2(C)C)cc1 [CypH-7] | > 1000 µM | 27.8 | 5681 | 788 nm | 204 | 786 nm | 179,500 M^−1cm^−1 | 764 nm | – | – | – | –
4 | CN(C)c1ccc(OC2=C(/C=C/C3=[N+](C)c4ccccc4C3(C)C)CC/C2=C\C=C2\N(C)c3ccccc3C2(C)C)cc1.[Cl-] [CypH-4] | – | 23.2 | 1924 | 801 nm | 83 | 790 nm | 58,000 M^−1cm^−1 | 775 nm | >1 mM in | – | – | –
5 | CCN(C)c1ccc(OC2=C(/C=C/C3=[N+](C)c4ccccc4C3(C)C)CC/C2=C\C=C2\N(C)c3ccccc3C2(C)C)cc1.[Cl-] [CypH-8] | – | 41.4 | 2816 | 801 nm | 68 | 791 nm | 72,700 M^−1cm^−1 | 777 nm | >1 mM in | – | – | –
6 | CCN1/C(=C/C=C2\CCCC(/C=C/C3=[N+](CC)c4ccccc4C3(C)C)=C2Oc2ccc(N(C)C)cc2)C(C)(C)c2ccccc21 [CypH-2] | > 1000 µM | 30.6 | 4254 | 787 nm | 139 | 786 nm | 139,100 M^−1cm^−1 | 764 nm | – | – | – | –
7 | CCN(C)c1ccc(OC2=C(/C=C/C3=[N+](C)c4ccccc4C3(C)C)CCC/C2=C\C=C2\N(C)c3ccccc3C2(C)C)cc1 [CypH-5] | > 1000 µM | 22 | 5089 | 786 nm | 227 | 787 nm | 134,000 M^−1cm^−1 | 762 nm | – | 22.4 | – | –
8 | CC(C)N(C)c1ccc(OC2=C(/C=C/C3=[N+](CCCS(=O)(=O)[O-])c4ccccc4C3(C)C)CCC/C2=C\C=C2\N(CCCS(=O)(=O)[O-])c3ccccc3C2(C)C)cc1.[Na+] [CypH-9] | – | 5.3 | 5125 | 793 nm | 972 | 789 nm | 176,300 M^−1cm^−1 | 769# nm | – | – | >1 mM in | –
9 | CCN(C)c1ccc(OC2=C(/C=C/C3=[N+](CCCS(=O)(=O)[O-])c4ccccc4C3(C)C)CCC/C2=C\C=C2\N(CCCS(=O)(=O)[O-])c3ccccc3C2(C)C)cc1.[Na+] [CypH-6] | – | 10.8 | 4359 | 789 nm | 405 | 791 nm | 150,400 M^−1cm^−1 | 768# nm | – | – | >1 mM in | –

More lines, main results first:

Row | Solubility [1, 5] | Ratio Intensity pH 5.0/7.5 [2] | FL Intensity pH 5.0 [2] | FL Max (nm) pH 5.0 [2] | FL Intensity pH 7.5 [2] | FL Max (nm) pH 7.5 [2] | Ex Coeff (M^−1cm^−1) @ Abs Max [3] | Abs. Max (nm) in EtOH [3] | Solubility ([1]; in EtOH) | Ratio Intensity pH 5.0/7.5 ([2]; listed as 5) | Solubility ([1]; in H2O) | SMILES | quantum yield (Φ) of standard compound [4]
10 | – | 38.2 | 4553 | 792 nm | 117 | 782 nm | 257,300 M^−1cm^−1 | 772 nm | >1 mM in | – | – | CCCN1/C(=C/C=C2\CCCC(/C=C/C3=[N+](CCC)c4ccccc4C3(C)C)=C2Oc2ccc(N(C)CC)cc2)C(C)(C)c2ccccc21.[I-] [CypH-18] | –
11 | – | 26.6 | 4847 | 791 nm | 182 | 783 nm | 248,000 M^−1cm^−1 | 771 nm | >1 mM in | – | – | CCCN1/C(=C/C=C2\CCCC(/C=C/C3=[N+](CCC)c4ccccc4C3(C)C)=C2Oc2ccc(N(C)C(C)C)cc2)C(C)(C)c2ccccc21.[I-] [CypH-16] | –
12 | – | 5.9 | 5627 | 786 nm | 958 | 784 nm | 215,800 M^−1cm^−1 | 767 nm | >1 mM in | – | – | CCN(CC)c1ccc(OC2=C(/C=C/C3=[N+](C)c4ccccc4C3(C)C)CCC/C2=C\C=C2\N(C)c3ccccc3C2(C)C)cc1.[Cl-] [CypH-14] | –
13 | > 1000 µM | 57.3 | 4468 | 791 nm | 78 | 782 nm | 269,100 M^−1cm^−1 | 770 nm | – | – | – | CCN(C)c1ccc(OC2=C(/C=C/C3=[N+](C(C)C)c4ccccc4C3(C)C)CCC/C2=C\C=C2\N(C(C)C)c3ccccc3C2(C)C)cc1 [CypH-17] | –
14 | > 1000 µM | 8.7 | 4285 | 787 nm | 493 | 784 nm | 255,600 M^−1cm^−1 | 767 nm | – | – | – | CC(C)N(C)c1ccc(OC2=C(/C=C/C3=[N+](C)c4ccccc4C3(C)C)CCC/C2=C\C=C2\N(C)c3ccccc3C2(C)C)cc1 [CypH-12] | –
15 | – | 68.2 | 3137 | 794 nm | 46 | 784 nm | 240,900 M^−1cm^−1 | 774 nm | >1 mM in | – | – | CC(C)CN1/C(=C/C=C2\CCCC(/C=C/C3=[N+](CC(C)C)c4ccccc4C3(C)C)=C2Oc2ccc(N(C)C)cc2)C(C)(C)c2ccccc21.[I-] [CypH-19] | –
16 | – | 35.0 | 4204 | 796 nm | 120 | 790 nm | 218,100 M^−1cm^−1 | 774 nm | >1 mM in | – | – | CC(C)CN1/C(=C/C=C2\CCCC(/C=C/C3=[N+](CC(C)C)c4ccccc4C3(C)C)=C2Oc2ccc(N(C)C(C)C)cc2)C(C)(C)c2ccccc21.[I-] [CypH-13] | –
17 | – | 53.2 | 4313 | 791 nm | 81 | 786 nm | 251,500 M^−1cm^−1 | 772 nm | >1 mM in | – | – | CCCN1/C(=C/C=C2\CCCC(/C=C/C3=[N+](CCC)c4ccccc4C3(C)C)=C2Oc2ccc(N(C)C)cc2)C(C)(C)c2ccccc21.[I-] [CypH-15] | –
18 | – | 35.1 | 3646 | 794 nm | 104 | 789 nm | 218,600 M^−1cm^−1 | 774 nm | >1 mM in | – | – | CCN(C)c1ccc(OC2=C(/C=C/C3=[N+](CC(C)C)c4ccccc4C3(C)C)CCC/C2=C\C=C2\N(CC(C)C)c3ccccc3C2(C)C)cc1.[I-] [CypH-20] | –
